The values below come from ChEMBL document CHEMBL6115043, “Novel 5,6-Fused and 6,6-Fused Bicyclic Compounds as 15-Prostaglandin Dehydrogenase Modulators” (ACS Med Chem Lett, 2025).

The structures appear in SMILES notation.

Test [1] has as its target T1, 15-hydroxyprostaglandin dehydrogenase [NAD(+)] (Homo sapiens, UniProt P15428).
T1 sequence (P15428 whole entry): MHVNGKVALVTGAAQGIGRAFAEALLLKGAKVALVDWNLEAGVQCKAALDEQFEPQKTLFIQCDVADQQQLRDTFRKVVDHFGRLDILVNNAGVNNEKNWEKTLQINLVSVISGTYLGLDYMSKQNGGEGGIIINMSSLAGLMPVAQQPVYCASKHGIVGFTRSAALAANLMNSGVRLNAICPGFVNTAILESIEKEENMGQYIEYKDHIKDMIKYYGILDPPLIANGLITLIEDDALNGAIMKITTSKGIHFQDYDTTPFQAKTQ
In words: Inhibition of 15-PGDH in human A549 cells assessed as increase in IL-1beta-stimulated PGE2 levels measured after 24 hrs by competitive HTRF assay. It counts as cell-based. Background: Time-resolved FRET reads energy transfer from a long-lived donor to a nearby acceptor.

Test [2] addresses T1, 15-hydroxyprostaglandin dehydrogenase [NAD(+)]. In words: Inhibition of recombinant human 15-PGDH using PGE2 and beta-NAD+ as substrate preincubated for 15 mins followed by substrate addition and measured after 60 mins.

The IC50 is the point on the concentration scale where inhibition reaches its midpoint. On to `Cn1cc2cc(-c3ccc4cc([C@]5(O)C[C@@H](C(F)(F)F)C5)sc4n3)cnc2n1`, for which, in test [1], the half-maximal inhibitory concentration (IC50) was determined as 0.05 nM.

For the compound `Cn1cc2cc(-c3ccc4nc([C@H](O)C5CC(F)(F)C5)sc4n3)cnc2n1`, the values for the 50% inhibitory concentration (IC50) in test [2] and in test [1] were 0.22 nM and 0.05 nM, respectively.
